# Data taken from ChEMBL document CHEMBL1671626, “In vitro profiling of ceftaroline against a collection of recent bacterial clinical isolates from across the United States” (2008).
# How the values were obtained:
# Type in all cases: functional
# Streptococcus pyogenes [1] = assay: Antibacterial activity against erythromycin-susceptible Streptococcus pyogenes assessed as susceptible isolates by CLSI M7-A7 broth microdilution method
# Streptococcus pyogenes [2] = assay: Antibacterial activity against erythromycin-nonsusceptible Streptococcus pyogenes assessed as resistant isolates by CLSI M7-A7 broth microdilution method
# Enterococcus faecalis [3] = assay: Antibacterial activity against vancomycin-resistant Enterococcus faecalis assessed as resistant isolates by CLSI M7-A7 broth microdilution method
# Enterococcus faecium [4] = assay: Antibacterial activity against vancomycin-resistant Enterococcus faecium assessed as resistant isolates by CLSI M7-A7 broth microdilution method
# Enterococcus faecalis [5] = assay: Antibacterial activity against vancomycin-susceptible Enterococcus faecalis assessed as resistant isolates by CLSI M7-A7 broth microdilution method
# Streptococcus pyogenes [6] = assay: Antibacterial activity against erythromycin-susceptible Streptococcus pyogenes assessed as resistant isolates by CLSI M7-A7 broth microdilution method
# Streptococcus viridans = assay: Antibacterial activity against penicillin-nonsusceptible Streptococcus viridans assessed as resistant isolates by CLSI M7-A7 broth microdilution method
# Streptococcus agalactiae [7] = assay: Antibacterial activity against erythromycin-susceptible Streptococcus agalactiae assessed as resistant isolates by CLSI M7-A7 broth microdilution method
# Enterococcus faecalis [8] = assay: Antibacterial activity against vancomycin-resistant Enterococcus faecalis assessed as susceptible isolates by CLSI M7-A7 broth microdilution method
# Enterococcus faecium [9] = assay: Antibacterial activity against vancomycin-resistant Enterococcus faecium assessed as susceptible isolates by CLSI M7-A7 broth microdilution method
# Enterococcus faecalis [10] = assay: Antibacterial activity against vancomycin-susceptible Enterococcus faecalis assessed as susceptible isolates by CLSI M7-A7 broth microdilution method
# Streptococcus agalactiae [11] = assay: Antibacterial activity against erythromycin-nonsusceptible Streptococcus agalactiae assessed as resistant isolates by CLSI M7-A7 broth microdilution method
Structure (SMILES),Activity (Streptococcus pyogenes [1]),Activity (Streptococcus pyogenes [2]),Activity (Enterococcus faecalis [3]),Activity (Enterococcus faecium [4]),Activity (Enterococcus faecalis [5]),Activity (Streptococcus pyogenes [6]),Activity (Streptococcus viridans),Activity (Streptococcus agalactiae [7]),Activity (Enterococcus faecalis [8]),Activity (Enterococcus faecium [9]),Activity (Enterococcus faecalis [10]),Activity (Streptococcus agalactiae [11])
CO/N=C(\C(=O)N[C@@H]1C(=O)N2C(C(=O)O)=C(CSc3nc(=O)c(O)nn3C)CS[C@H]12)c1csc(N)n1 [CEFTRIAXONE],100%,–,–,–,–,–,–,–,–,–,–,–
C[C@H]1COc2c(N3CCN(C)CC3)c(F)cc3c(=O)c(C(=O)O)cn1c23.C[C@H]1COc2c(N3CCN(C)CC3)c(F)cc3c(=O)c(C(=O)O)cn1c23.O [LEVOFLOXACIN],100%,0%,96%,100%,40.8%,0%,7.1%,0%,4%,0%,59.2%,2.4%
